This note sets out measurements from US20170079970A1, “TETRAHYDROQUINOLINE DERIVATIVES AND THEIR USE AS EPAC1 INHIBITORS FOR THE TREATMENT OF MYOCARDIAL INFARCTION INJURY” (INSERM (INSTITUT NATIONAL DE LA SANTÉ ET DE LA RECHERCHE …, priority 2014, published 2017).

For this assay, the system named is Isolated mouse adult cardiomyocytes. Kind of assay: Hypoxia and hypoxia-reoxygenation induced cardiomyocyte death, LDH release. Conditions: pretreated with 10 μM. Format: cell-based. The protocol: FIG. 4. A pharmacological inhibitor of Epac1, R-CE3F4 prevents hypoxia and hypoxia-reoxygenation induced cardiomyocyte death. Isolated mouse adult cardiomyocytes, pretreated or not with either 10 μM R-CE3F4 or its analogue ΔCHO (10 μM) were exposed to hypoxia (HX) for 4 h followed by a 2 h of reoxygenation period (HX+R). Cell death was determined by LDH release. Results are expressed as means±S.E.M. The bar graph represents the average of 5 independent experiments performed in triplicate. Statistical significance was determined by 2-way ANOVA. * P<0.05 compared with indicated values.
Myocardial infarction was induced in wild-type (WT) versus Epac1^−/− littermates by left anterior descending coronary artery (LAD) ligation for 24 h. Ischemia/Reperfusion was induced by the left anterior descending coronary artery occlusion for 45 min and followed by 24 h of reperfusion. The area at risk (AAR) and infarct size were evaluated by Evans blue and TTC staining, respectively. […] Isolated mouse adult cardiomyocytes pretreated with either R-CE3F4 or (ΔCHO) were exposed to hypoxia (HX) for 4 h followed by a 2 h of reoxygenation period (HX+R). Cell death was determined by LDH release.
A general note: LDH leaks from cells whose membrane has failed.

With `C[C@@H]1CCc2c(cc(Br)c(F)c2Br)N1C=O` [R-CE3F4], where the note is “hypoxia 4 h followed by 2 h reoxygenation (HX+R)”, the “HX+R-induced cardiomyocyte death (LDH release)” value is “significantly prevented”. Moreover, under “hypoxia (HX) for 4 h”, the “HX-induced cardiomyocyte death (LDH release)” value was “significantly prevented”.
